Assay [1] concerns Rhodanobacter sp. FW104-10B01. In short, it runs like this: (§1)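 Washed cells (80 µL, final OD600 0.02) were dispensed onto 384-well dilution series of inorganic ion salts or equimolar nitrilotriacetic acid complexes. Plates kept aerobically were shaken at 700 rpm at 30 °C, anaerobic ones stayed still, and OD600 readings at 24 h (48 h for R2A strain comparisons) were scaled between water and growth-blocking antibiotic controls, ignoring wells with precipitate. IC50 values are drc R package fits of at least two biological replicate curves.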

Assay [2] has as its system Pseudomonas fluorescens FW300-N2E2. In outline: as §1
Setting [3] is: medium / electron acceptor: 10B01 R2A/aerobic.
[4] abbreviates: medium / electron acceptor: 10B01 R2A/nitrate.
[5] abbreviates: medium / electron acceptor: N2E2 Glucose/aerobic.
The mark [6] stands for this setting: medium / electron acceptor: N2E2 Glucose/aerobic 0.25xMinerals.
[7] abbreviates: medium / electron acceptor: N2E2 Glucose/aerobic (2).
[8] abbreviates: medium / electron acceptor: N2E2 KB/aerobic.
Where [9] appears, read: medium / electron acceptor: N2E2 LB/aerobic.
[10] abbreviates: medium / electron acceptor: N2E2 LB/aerobic (2).
Setting [11] is: medium / electron acceptor: N2E2 LB/nitrate.
[12] abbreviates: medium / electron acceptor: N2E2 Lactate/aerobic.
The mark [13] stands for this setting: medium / electron acceptor: N2E2 R2A/aerobic.

Regarding `[Cl][Ag]` [silver chloride], the IC50 growth inhibition in assay [1] (setting [3]) was more than 0.5 mM; in assay [1] (setting [4]), more than 0.5 mM; in assay [2] (setting [5]) it was 0.139 mM; in assay [2] (setting [6]), more than 0.5 mM; in assay [2] (setting [7]), more than 0.5 mM; in assay [2] (setting [8]), more than 0.5 mM. Besides, the IC50 growth inhibition was more than 0.5 mM in assay [2] (setting [9]); more than 0.5 mM in assay [2] (setting [10]); more than 0.5 mM in assay [2] (setting [11]); 0.154 mM in assay [2] (setting [12]); more than 0.5 mM in assay [2] (setting [13]).

Turning to `[Br-].[Na+]` [sodium bromide], the IC50 growth inhibition in assay [1] (setting [3]) is more than 500 mM; in assay [1] (setting [4]) it was more than 500 mM; in assay [2] (setting [5]) it was 354 mM; in assay [2] (setting [6]), 405 mM; in assay [2] (setting [7]), 379 mM; in assay [2] (setting [8]), 354 mM. The IC50 growth inhibition in assay [2] (setting [9]) came out at 354 mM; in assay [2] (setting [10]) it was 354 mM; in assay [2] (setting [11]), 303 mM; in assay [2] (setting [12]), 378 mM; in assay [2] (setting [13]), 448 mM.

`[F-].[Na+]` [sodium fluoride]: the IC50 growth inhibition was 354 mM in assay [1] (setting [3]); 11.6 mM in assay [1] (setting [4]); less than 0.244 mM in assay [2] (setting [5]); less than 0.244 mM in assay [2] (setting [6]); less than 0.244 mM in assay [2] (setting [7]); 0.322 mM in assay [2] (setting [8]). The IC50 growth inhibition turned out to be 1.11 mM in assay [2] (setting [9]); 1.1 mM in assay [2] (setting [10]); 0.497 mM in assay [2] (setting [11]); 0.477 mM in assay [2] (setting [12]); 2.9 mM in assay [2] (setting [13]).

For `[O-][I+2]([O-])O` [sodium iodate], the IC50 growth inhibition in assay [1] (setting [3]) is 35.4 mM; in assay [1] (setting [4]) it was 4.5 mM; in assay [2] (setting [5]) it was 4.72 mM; in assay [2] (setting [6]), 2.75 mM; in assay [2] (setting [7]), 0.645 mM; in assay [2] (setting [8]), 3.53 mM. Besides, the IC50 growth inhibition stood at 8.49 mM in assay [2] (setting [9]); 12.4 mM in assay [2] (setting [10]); 0.208 mM in assay [2] (setting [11]); 5.41 mM in assay [2] (setting [12]); 7.77 mM in assay [2] (setting [13]).

Turning to `[I-].[Na+]` [sodium iodide], the IC50 growth inhibition is 354 mM in assay [1] (setting [3]); 319 mM in assay [1] (setting [4]); 59.4 mM in assay [2] (setting [5]); more than 500 mM in assay [2] (setting [6]); 107 mM in assay [2] (setting [7]); 304 mM in assay [2] (setting [8]). The IC50 growth inhibition in assay [2] (setting [9]) amounted to 330 mM; in assay [2] (setting [10]), 354 mM; in assay [2] (setting [11]), 125 mM; in assay [2] (setting [12]), 124 mM; in assay [2] (setting [13]), 237 mM.

Regarding `O=S([O-])[O-].[Na+].[Na+]` [sodium sulfite], the IC50 growth inhibition is more than 500 mM in assay [1] (setting [3]); 2 mM in assay [1] (setting [4]); 0.261 mM in assay [2] (setting [5]); 0.391 mM in assay [2] (setting [6]); 0.45 mM in assay [2] (setting [7]); less than 0.244 mM in assay [2] (setting [8]). For the same molecule, the IC50 growth inhibition in assay [2] (setting [9]) was 7.58 mM; in assay [2] (setting [10]) it was 1.7 mM; in assay [2] (setting [11]) it was 1.12 mM; in assay [2] (setting [12]) it was less than 0.244 mM; in assay [2] (setting [13]), 31.7 mM.

As to `OB1OB2OB(O)OB(O1)O2` [sodium tetraborate decahydrate], the IC50 growth inhibition in assay [1] (setting [3]), in assay [1] (setting [4]), in assay [2] (setting [5]), in assay [2] (setting [6]), in assay [2] (setting [7]) and in assay [2] (setting [8]) was more than 5 mM each time. The IC50 growth inhibition in assay [2] (setting [9]) is more than 5 mM; in assay [2] (setting [10]), more than 5 mM; in assay [2] (setting [11]), 3.16 mM; in assay [2] (setting [12]), more than 5 mM; in assay [2] (setting [13]) it was more than 5 mM.

Values taken from the supplement of paper PMC6461962.
